One molecule from patent publication US12673063B2, “Methods and materials for treatment of fibrosis” (Massachusetts Eye and Ear Infirmary, priority 2020, dated 2026) can be followed below.

For one data set, the system named is A549 cells. In words: Lactate dehydrogenase (LDH) cell death assay, A549. The format is cell-based. To be noted: A549; Ro24-7429 50-200 μM, Ro5-3335 150 μM. The procedure:
Human type II alveolar epithelial cells (A549) were a generous gift from Dr. Lagares (Mass General Hospital). Cells were maintained in low glucose-DMEM containing 10% FBS, 2 mM L-glutamine, 100 U/ml penicillin and 100 μg/ml streptomycin at 37° C. in a humidified 5% C02 atmosphere.
We tested the effect of RUNX1 inhibition on the proliferation of a human alveolar basal epithelial cell line (A549), primary human-derived pulmonary alveolar epithelial cells (HPAEpi), and in human-derived primary culture lung fibroblasts (HLF).

Data set [1] has as its system human lung fibroblasts (HLF). The data set can be described thus: Lactate dehydrogenase (LDH) cell death assay, HLF. The format is cell-based. As to conditions: Ro24-7429 50-200 μM, Ro5-3335 150 μM. The source says: We conducted mechanistic studies in cell culture to examine the cellular and molecular mechanisms underlying the robust effects of RUNX1 inhibition in the protection against bleomycin-induced lung injury. We tested the effect of RUNX1 inhibition on the proliferation of a human alveolar basal epithelial cell line (A549), primary human-derived pulmonary alveolar epithelial cells (HPAEpi), and in human-derived primary culture lung fibroblasts (HLF). For specific analyses we used escalating doses of Ro24-7429 (50-200 μM), Ro5-3335 (150 μM), pirfenidone (500 μg/ml) and nintedanib (5 μM), the latter two are currently approved drugs for IPF.

As for `CNC1=Nc2ccc(Cl)cc2C(c2ccc[nH]2)=NC1` [Ro24-7429, 3H-1,4-Benzodiazepin-2-amine, 7-chloro-N-methyl-5-(1H-pyrrol-2-yl)-], the “cell death by LDH analysis” value (with A549 cells; in data set [1]) was “Very low levels of cell death” in each case.
